Values quoted from earlier work as cited in patent publication US7517540B2, “Cranberry seed oil extract and compositions containing components thereof” (priority 1999, dated 2009).

Experiments:
[1] = tested on: MDA-MB-435; conditions: for IC50, inhibition of proliferation of MDA-MB-435: MDA-MB-435 (estrogen receptor-negative), combinations with tamoxifen 1:1; for Inhibition of proliferation, MDA-MB-435 (Table 5): alone, 1:1 or 1:1:1 combinations
[2] = tested on: MCF-7; conditions: for IC50, inhibition of proliferation of MCF-7: MCF-7 (estrogen receptor-positive), combinations with tamoxifen 1:1; for Inhibition of proliferation, MCF-7 (Table 5): alone, 1:1 or 1:1:1 combinations
[3] = fed to hypercholesterolemic chicken

For CC(C)=CCC/C(C)=C/CC/C(C)=C/CC[C@]1(C)CCc2cc(O)c(C)c(C)c2O1 [γ-Tocotrienol], the “IC50, inhibition of proliferation of MDA-MB-435” value (shortened to “IC50, inhibition … of MDA-MB-435”) [1] is listed as 30 ± 2 µg/mL, the “Inhibition of proliferation, MDA-MB-435 (Table 5)” value [1] is listed as 30 and the “IC50, inhibition of proliferation of MCF-7” value (“IC50, inhibition … of MCF-7” below) [2] is listed as 2 ± 0.1 µg/mL. For the same compound, the “Inhibition of proliferation, MCF-7 (Table 5)” value [2] was 2 and the Hypocholesterolemic potency compared [3] was “more potently hypocholesterolemic than α-tocopherol, TRF, or α-tocotrienol”.
For CC(C)=CCC/C(C)=C/CC/C(C)=C/CC[C@]1(C)CCc2cc(O)cc(C)c2O1 [δ-Tocotrienol], the “IC50, inhibition … of MDA-MB-435” value [1] is listed as 90 ± 3 µg/mL, the “IC50, inhibition … of MCF-7” value [2] is listed as 2 ± 0.05 µg/mL and the Hypocholesterolemic potency compared [3] is listed as “more potently hypocholesterolemic than α-tocopherol, TRF, or α-tocotrienol”.
For CC(C)=CCC/C(C)=C/CC/C(C)=C/CC[C@]1(C)CCc2c(C)c(O)c(C)c(C)c2O1 [α-Tocotrienol], the “IC50, inhibition … of MDA-MB-435” value [1] is listed as 90 ± 3 µg/mL and the “IC50, inhibition … of MCF-7” value [2] is listed as 6 ± 0.3 µg/mL.
For Cc1c(C)c2c(c(C)c1O)CC[C@@](C)(CCC[C@H](C)CCC[C@H](C)CCCC(C)C)O2 [α-Tocopherol], the “IC50, inhibition … of MDA-MB-435” value [1] is listed as >1000 µg/mL and the “IC50, inhibition … of MCF-7” value [2] is listed as 125 ± 3 µg/mL.
For COc1ccc(-c2cc(=O)c3c(OC)c(OC)c(OC)c(OC)c3o2)cc1 [Tangeretin only, Tangeretin], the “Inhibition of proliferation, MDA-MB-435 (Table 5)” value [1] is listed as 0.5 and the “Inhibition of proliferation, MCF-7 (Table 5)” value [2] is listed as 0.4.
